The values below come from US5552419A, “Arylsulfonamido-substituted hydroxamic acids” (Ciba-Geigy Corporation, priority 1993, dated 1996).

The target in test [1] is recombinant human stromelysin (Homo sapiens, UniProt P08254). Nature of the test: release of KS and S-GAG fragments into the joint in rabbits after intra-articular injection of recombinant human stromelysin. The test is classed as in vivo, rabbit. As to conditions: 30 mg/kg, 4 hours prior to injection of human recombinant stromelysin. As to the method:
The effect of compounds of the invention in-vivo can be determined in rabbits. […] Two hours later the rabbits are sacrificed, synovial lavage is collected, and keratan sulfate (KS) and sulfated glycosaminoglycan (S-GAG) fragments released into the joint are quantitated. Keratan sulfate is measured by an inhibition ELISA using the method of Thonar (Thonar, E. J.-M. A., Lenz, M. E., Klinsworth, G. K., Caterson, B., Pachman, L. M., Clickman, P.., Katz, R., Huff, J., Keuttner, K. E. Quantitation of keratan sulfate in blood as a marker of cartilage catabolism, Arthr. Rheum. 28, 1367-1376 (1985)). Sulfated glycosaminoglycans are measured by first digesting the synovial lavage with streptomyces hyaluronidase and then measuring DMB dye binding using the method of Goldberg (Goldberg, R. L. and Kolibas, L. An improved method for determining proteoglycan synthesized by chondrocytes in culture. Connect. Tiss. Res. 24, 265-275 (1990)). For an i.v. study, a compound is solubilized in 1 ml of PEG-400, and for a p.o. study, a compound is administered in 5 ml of fortified […] per kilogram of body weight.

The subject of test [2] is cartilage degradation. Nature of the test: protection against cartilage degradation in a surgical model of osteoarthritis. The format is in vivo. The source says: The effect in protecting against cartilage degradation in arthritic disorders can be determined e.g. in a surgical model of osteoarthritis described in Arthritis and Rheumatism, Vol. 26, 875-886 (1983).

Sequence of recombinant human stromelysin (P08254 100-477): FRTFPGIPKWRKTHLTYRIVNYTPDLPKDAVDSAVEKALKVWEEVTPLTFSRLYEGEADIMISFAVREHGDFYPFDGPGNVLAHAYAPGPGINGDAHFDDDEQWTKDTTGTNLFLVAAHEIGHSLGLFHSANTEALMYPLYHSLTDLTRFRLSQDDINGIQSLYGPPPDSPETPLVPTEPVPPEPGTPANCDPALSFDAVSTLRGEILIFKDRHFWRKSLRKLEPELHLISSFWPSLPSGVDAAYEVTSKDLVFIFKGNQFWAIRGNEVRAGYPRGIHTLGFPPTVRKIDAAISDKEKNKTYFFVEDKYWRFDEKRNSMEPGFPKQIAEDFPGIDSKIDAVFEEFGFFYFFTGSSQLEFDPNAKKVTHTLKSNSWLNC

Take `COc1ccc(S(=O)(=O)N(Cc2cccnc2)[C@@H](C(=O)NO)C(C)C)cc1.Cl` [N-hydroxy-2(R)-[[4-methoxybenzenesulfonyl](3-picolyl)amino]-3-methylbutanamide hydrochloride]: in test [1] (KS by inhibition ELISA), the “inhibition in the release of KS fragments into the joint” value came to 72%. The “inhibition in the release of S-GAG fragments into the joint” value in test [1] (S-GAG by DMB dye binding) was found to be 70%. Also, the “effect in protecting against cartilage degradation in arthritic disorders” value in test [2] is listed as “protects against cartilage degradation”.
